Experimental data taken from the supplement of paper PMC10307832.

What was measured:
Experiment in all cases: relative viability (nuclei count vs DMSO), 5 days (fraction); higher = more cells survive
SGI-1776 + Navitoclax = compound: CN1CCC(CNc2ccc3ncc(-c4cccc(OC(F)(F)F)c4)n3n2)CC1 [SGI-1776] + CC1(C)CCC(c2ccc(Cl)cc2)=C(CN2CCN(c3ccc(C(=O)NS(=O)(=O)c4ccc(N[C@H](CCN5CCOCC5)CSc5ccccc5)c(S(=O)(=O)C(F)(F)F)c4)cc3)CC2)C1 [Navitoclax] (partner 0.5 µM)
Outline: (§1)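 Relative viability is defined as nuclei in treated wells over nuclei in vehicle wells. Duplicate plates were run and medians reported. Lung cancer cell lines in 1536-well plates were dosed by pin tool one day after seeding, with one drug or with a fixed anchor-drug dose plus five library-drug doses (not always all listed) in √10 steps, and nuclei were counted after 5 days.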

Entinostat + Luminespib = compound: Nc1ccccc1NC(=O)c1ccc(CNC(=O)OCc2cccnc2)cc1 [Entinostat] + CCNC(=O)c1noc(-c2cc(C(C)C)c(O)cc2O)c1-c1ccc(CN2CCOCC2)cc1 [Luminespib] (partner 0.01 µM)
Outline: as §1

Entinostat + Palbociclib = compound: Nc1ccccc1NC(=O)c1ccc(CNC(=O)OCc2cccnc2)cc1 [Entinostat] + CC(=O)c1c(C)c2cnc(Nc3ccc(N4CCNCC4)cn3)nc2n(C2CCCC2)c1=O [Palbociclib] (partner 0.5 µM)
Outline: as §1

Entinostat + Lapatinib = compound: Nc1ccccc1NC(=O)c1ccc(CNC(=O)OCc2cccnc2)cc1 [Entinostat] + CS(=O)(=O)CCNCc1ccc(-c2ccc3ncnc(Nc4ccc(OCc5cccc(F)c5)c(Cl)c4)c3c2)o1 [Lapatinib] (partner 2 µM)
Outline: as §1

Cell Line	relative viability (SGI-1776 + Navitoclax; first compound 0.08 µM)	relative viability (SGI-1776 + Navitoclax; first compound 0.8 µM)	relative viability (SGI-1776 + Navitoclax; first compound 2.53 µM)	relative viability (SGI-1776 + Navitoclax; first compound 8 µM)	relative viability (Entinostat + Luminespib; first compound 0.02 µM)	relative viability (Entinostat + Luminespib; first compound 0.06325 µM)	relative viability (Entinostat + Luminespib; first compound 0.2 µM)	relative viability (Entinostat + Luminespib; first compound 0.6325 µM)	relative viability (Entinostat + Luminespib; first compound 2 µM)	relative viability (Entinostat + Palbociclib; first compound 0.02 µM)	relative viability (Entinostat + Palbociclib; first compound 0.06325 µM)	relative viability (Entinostat + Palbociclib; first compound 0.2 µM)	relative viability (Entinostat + Palbociclib; first compound 0.6325 µM)	relative viability (Entinostat + Palbociclib; first compound 2 µM)	relative viability (Entinostat + Lapatinib; first compound 0.02 µM)	relative viability (Entinostat + Lapatinib; first compound 0.06325 µM)	relative viability (Entinostat + Lapatinib; first compound 0.2 µM)	relative viability (Entinostat + Lapatinib; first compound 0.6325 µM)	relative viability (Entinostat + Lapatinib; first compound 2 µM)
NCI-H1355	0.952	0.967	0.883	0.798	0.724	0.611	0.616	0.504	0.418	0.416	0.417	0.332	0.328	0.25	1.03	0.978	0.798	0.568	0.513
NCI-H1395	1.08	1.41	1.13	0.836	0.711	0.663	0.634	0.659	0.6	0.602	0.773	0.802	0.603	0.523	1.1	1.21	0.901	0.566	0.569
NCI-H1437	1.13	1.07	1.11	1.04	0.829	0.853	0.552	0.301	0.257	0.236	0.182	0.204	0.178	0.122	0.671	0.399	0.297	0.183	0.126
NCI-H1650	1.22	1.21	0.981	0.762	0.214	0.198	0.185	0.212	0.195	0.352	0.299	0.334	0.283	0.162	0.79	0.897	0.888	0.521	0.329
NCI-H1651	1.19	1.04	0.9	0.825	0.795	1.01	0.742	0.724	0.64	0.549	0.535	0.617	0.533	0.45	0.816	0.905	0.925	0.726	0.217
NCI-H1666	0.907	0.772	0.836	0.705	1.05	1.19	1.04	0.701	0.445	0.672	0.684	0.697	0.65	0.565	0.624	0.564	0.566	0.282	0.264
NCI-H1734	0.829	0.851	0.884	0.759	0.227	0.204	0.185	0.213	0.181	0.385	0.375	0.402	0.347	0.256	1.16	1.11	1.05	0.787	0.481
NCI-H1755	1.02	0.976	0.934	0.856	0.483	0.459	0.678	0.528	0.415	0.439	0.454	0.446	0.407	0.342	1.02	1.02	0.95	0.532	0.264
